Test results from patent publication US5852004A, “Drug and pharmaceutical composition for the treatment of lesions of the digestive tract” (Societe Valbiofrance, priority 1994, dated 1998).
Like-named read-outs stand apart in the source and are kept apart here.

Experiments:
[1] = target: T1, beta TGF (Homo sapiens, UniProt P01137); assay: protection of beta TGF against trypsin, read by inhibition of tritiated thymidine incorporation in CCL64 cells; assay type: cell-based; conditions: 37° C. 10 min
T1 construct: from tissue; host or cells: human blood platelets
Description: In order to measure the capacity of certain CMDBSs to interact with members of the beta TGF family and, by means of this interaction, to protect the beta TGFS, a grading test was devised.
The beta 1 TFG is prepared from human blood platelets according to a protocol described in numerous publications (for example Growth factors and their receptors, 1992, vol 1 pp 419-472, written by A. Roberts and M. Sporn, edited by A. Roberts and M. Sporn, and published by Springer Verlag Berlin) and is commonly used by persons of ordinary skill in the art. The beta TGF biological activity test used in this example is that of the inhibition of CCL64 cells (from the American Tissue Culture Collection). This inhibition is measured by the ability of the beta TGF to inhibit the incorporation of tritiated thymidine in a dose dependent manner in these CCL64 cells stimulated by the FGF or by fetal calf serum according to the protocol described by Van Zolen in Progress in Growth Factor Research, 1990, 2, pp 131 to 152. Two doses of beta TGF are used, one corresponding to the 50% inhibition capacity of the incorporation of tritiated thymidine (defined as the inhibiting activity unit) and the other corresponding to the 100% inhibition capacity.
The final volume of the incubated solution is adjusted to 1 ml and incubation is carried out at 37° C. for a varying length of time (10 minutes in the example described (Table 1)).
20 μl samples […] are taken from each of the incubation reactions and added to CCL64 cells cultivated in 24-well plates, each well containing one milliliter of culture medium according to the aforementioned protocol described by E. Zohlen. In these conditions, the final concentration of beta TGF per well is 1 ng/ml.
The incubation mixture contained 50 ng of beta TGF (in 0.1% bovine serum albumin) and trypsin (500 μg). Mesoglycan or sulodexide or dextran sulfate or dextran or sucrase are used at the dose of 5000 μg.
The beta TGF biological activity is measured as described above after a dilution of 50 times and by using CCL64 cells.

[2] = test system: anastomosis of the rectocolic junction
Description: Male Wistar rats (Wi/Wi, Ico, Iffa Credo France), weighing 250 to 300 g are anesthetized with sodic pentobarbital. A subumbilical midline laparotomy is performed over 1.5 cm. The rectocolic junction is individualized and then sectioned with bistoury. […] The anastomosis is carried out according to a termino-terminal mode in a plane by five separate stitches of polyglactine 910 thread, diameter 6/0. The knots are made of 6 loops. Parietal closure is performed in two planes. The rats are divided into two groups of 7 rats. The experiments are conducted in double blind. Samples are taken on the 2nd, 4th and 7th days after the operation. The quality of the healing is studied by measuring the rupture pressure of the anastomosis, in millimeters of mercury. The colon is sectioned 2 cm on either side of the anastomosis, one end being connected to a self-pushing syringe which injects water at a low, constant rate, and the other end being linked to a manometer. Pressure is recorded continuously on a reel of paper. The rupture pressure is determined by analyzing the tracing.

[3] = test system: colitis induced by acetic acid; assay: colitis induced by acetic acid; assay type: in vivo, Sprague Dawley male rats; conditions: for Alteration score: per os twice a day for three days, score 72 hours after acetic acid, mean ± standard error
Description: Groups of 6 Sprague Dawley male rats weighing approximately 200 g are placed in hydric fasting 24 hours before the test. On the day of the test, the animals are anesthetized with pentobarbital (30 mg/kg) by intraperitoneal route. After laparotomy, a colic instillation of 2 ml of 5% acetic acid is performed 2 cm from the caecum. The acetic acid is left in contact for 10 seconds and the colon is then rinsed by 3 ml of saline phosphate buffer (PBS) at pH 7. The wound is then closed. The animals are sacrificed 72 hours later by cervical elongation. The colic alterations are noted on the following scale:
2: superficial necrosis of the mucosa
4: major necrosis of the mucosa with edema
A third group receives sucralfate (marketed under the name of ULCAR Pharmaceutical Laboratories Fabre). The supplier's recommended dose is used (500 mg/kg, i.e. 100 mg per rat) administered orally twice a day for three days.
The mean and the standard error were calculated for each batch of animals. Statistical comparison is performed using White's non parametric test compared to the control.

[4] = test system: complement system; conditions: according to Mauzac et al.
[5] = test system: trypsin; assay: enzymatic activity of trypsin on substrate S87
Description: The enzymatic activity of trypsin was measured by spectrophotometric absorption of the transformation product of S 87 versus incubation time.

[6] = test system: FGF 1; assay: potentialization of FGF1 biological activity, tritiated thymidine incorporation in CCL39 cells; assay type: cell-based
Excerpt: (§1) The cells used in this example are CCL39 cells from the American Tissue Culture Collection. The conditions concerning culture and the measurement test of FGF biological activity are the same as those described in the publication by Tardieu and coll. in the Journal of Cellular Physiology, 1992. The FGF growth factors used are the FGF 1 and FGF 2 recombinant forms.
(§2) In these experiments, the FGF 1 or 2 is used at a dose corresponding to the effective dose (indicated ED50) in order to induce a stimulation of the biological activity of 50% of the dose inducing the maximum stimulation. The biological activity is measured by the ability to induce an increase of the incorporation of tritiated thymidine in the cells according to protocols extensively described in numerous publications such as the previously mentioned publication by Tardieu et coll. and also in French Patent 2 644 066.
(§3) In addition to this ability to potentialize the biological activity of the FGFs, the HBGFPPs protect the FGFs against thermal degradations and the inactivation induced by the proteolytic action of trypsin (FIGS. 4 and 5). Similarly, these HBGFPPs protect FGF1 and 2 against an inactivation induced by the proteolytic activity of trypsin (FIGS. 5A and 5B).

[7] = test system: FGF 2; assay: potentialization of FGF2 biological activity, tritiated thymidine incorporation in CCL39 cells; assay type: cell-based
Excerpt: as §1, §2, §3

[8] = test system: FGF1; assay: protection of FGF1 against thermal degradation; assay type: cell-based; conditions: FIG. 3; 20° C. and 37° C., 1, 7, 15, 30 days
Description: (§4) (a) and 37° C. (b) for 1, 7, 15, 30 days. The measurement of the biological activity presented in abscissa corresponds to the stimulation unit values (ED50) of the incorporation of tritiated thymidine in CCL39 cells.

[9] = test system: FGF2; assay: protection of FGF2 against thermal degradation; assay type: cell-based; conditions: FIG. 4; 20° C. and 37° C., 1, 7, 15, 30 days
Description: as §4

[10] = test system: 125I-FGF1; assay: protection of 125I-FGF1 against proteolytic degradation by trypsin (gel, autoradiography); assay type: biochemical; conditions: FIG. 5A, 37° C.
Description: Proteolytic digestion was carried out at 37° C. and the samples were separated by 18% polyacrylamide gel electrophoresis. The gels are dried and autoradiographed. The first track contains the 125I-FGF1 on its own.

[11] = test system: 125I-FGF2; assay: protection of 125I-FGF2 against proteolytic degradation by trypsin (gel, autoradiography); assay type: biochemical; conditions: FIG. 5B, 37° C.
Excerpt: The arrangement of the tracks is identical to that presented for the ^125 I-FGF1 in FIG. 5A.

[12] = test system: FGF; assay: semi-quantitative evaluation of FGF protection against trypsin (densitometry of radio-labelled FGF); assay type: biochemical; conditions: FGF + trypsin + polymer; radio-labelled FGF found vs quantity deposited
Description: As described above, a constant quantity of radioactive FGF is incubated under various conditions. After autoradiography of the reaction products, the non degraded quantity of radioactive FGF is quantified by densitometry. The values correspond to the percentage of radio-labelled FGF found compared to the quantity deposited at the start of reaction (Table 5).

[13] = test system: FGF; conditions: Tardieu et al. 1992; cited from earlier work
[14] = beta TGF 50 ng + polymer 5000 μg + trypsin 500 μg
[15] = beta TGF 50 ng + polymer 5000 μg, no trypsin
[16] = 10 μg/ml of sulodexide or 20 μg/ml of heparin, CCL39 cells

T1 sequence (P01137 279-390 limits assumed): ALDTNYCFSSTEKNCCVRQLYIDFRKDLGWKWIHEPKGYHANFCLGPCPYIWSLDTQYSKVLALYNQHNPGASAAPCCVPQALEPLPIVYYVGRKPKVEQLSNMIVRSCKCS

With “carboxymethyl dextran benzylamide sulfonate [CMDBS]” the “% inhibiting activity of the incorporation of tritiated thymidine in CCL64 cells” value (“% inhibiting activity” below) [1, 14] was 75%, the “% inhibiting activity” value [1, 15] was 100% and the “Rupture pressure, mean” value ([2]; DAY 2) was 67.28 mm of Hg. For the same molecule, the “Rupture pressure, mean” value ([2]; DAY 4) was 144.8 mm of Hg, the “increased resistance vs untreated” value ([2]; Day 4) was “about 10%” and the “difference between treated and untreated resistances” value ([2]; Day 7) was “no longer any difference”. For the same molecule, the Alteration score [3] was 0.70 ± 0.37, the “reduction of the seriousness of the colic lesions” value ([3]; p≤0.05) was “about 75%” and the “anticomplement activity, CH50” value [4] was 1.1 µg. The “inhibiting power on the activity of trypsin” value [5] was “no inhibiting power”, the “trypsin activity on S87” value ([5]; trypsin 10 ug/ml + S87 + 5 μg/ml CMDBS) was 100 and the “trypsin activity on S87” value ([5]; trypsin + S87 + 50 μg/ml CMDBS) was 100. The “trypsin activity on S87” value ([5]; trypsin + S87 + 500 μg/ml CMDBS) was 100.

In the case of heparin, the “% inhibiting activity” value [1, 14] is reported as 10%, the “% inhibiting activity” value [1, 15] is reported as 100% and the “ED50 of FGF 1 in the presence of polymer” value [6, 16] is reported as 0.4 ng/mL. The “potentialization of the biological activity of FGF1” value ([6]; FIG. 2A, 20 μg heparin, 10 μg mesoglycan or 10 μg sulodexide) was “potentialization”, the “ED50 of FGF 2 in the presence of polymer” value [7, 16] was 0.2 ng/mL and the “potentialization of the biological activity of FGF2” value ([7]; FIG. 2B, 20 μg heparin, 10 μg mesoglycan or 10 μg sulodexide) was “potentialization”. The “protective effect against thermal degradation of FGF1” value [8] was “protective effect”, the “protective effect against thermal degradation of FGF2” value [9] was “protective effect” and the “protective effect against proteolytic degradation of 125I-FGF1” value [10] was “protective effect”. The “protective effect against proteolytic degradation of 125I-FGF2” value [11] was “protective effect”, the “PROTECTION (in %) of the FGF” value [12] was 100% and the “protection of FGFs against proteolysis induced by trypsin” value [13] was “provides protection against proteolysis induced by trypsin”.

In the case of sucralfate [reference compound], the Alteration score [3] is reported as 2.25 ± 0.48 and the “effect on the healing of the ulcers” value ([3]; rat, in vivo) is reported as “no significant effect”.

B1: STBI: trypsin inhibitor originating from soya, from Sigma (protein, UniProt P01070 25-205, looked up)
Trypsin inhibitor A: DFVLDNEGNPLENGGTYYILSDITAFGGIRAAPTGNERCPLTVVQSRNELDKGIGTIISSPYRIRFIAEGHPLSLKFDSFAVIMLCVGIPTEWSVVEDLPEGPAVKIGENKDAMDGWFRLERVSDDEFNNYKLVFCPQQAEDDKCGDIGISIDHDDGTRRLVVSKNKPLVVQFQKLDKESL
With B1 the “trypsin activity on S87” value ([5]; trypsin + S87 + trypsin inhibitor) was 0.
